Assays:
[1] = system: middle cerebral artery ischemia-reperfusion model; experiment: Cerebroprotective action in middle cerebral artery ischemia-reperfusion model; type: in vivo, rat
Experimental: CD(SD)IGS male rats (Japan Charles river Kabushiki kaisha, Hino farm, room No. 22, specific product) (8 rats per one group) having body weight 270 to 350 g were anesthetized by 2% isoflurane (mixed bas comprising of 70% N2O (laughter gas) and 30% O2) to immobilize, and then the rats were put on warming plate to keep the rectal and brain temperature 37 to 38° C. After that, to observe the stability in the examination, cannula which was made by polyethylene (PE-50, Becton Dickinson) was inserted and left in caudal artery of said animal, and this made blood drawing and blood pressure determining to monitor the biochemical parameter such as blood sugar level, hematocrit, CO2 concentration, oxygen partial pressure, pH, blood pressure and etc. In addition, cerebral blood flow in cortex was determined by laser doppler fluorometry (Neuroscience.inc: OMEGA FLOW (FLO-C1)), putting the detection site directly on cranium on the point left 4 mm from bregma. Left neck of such animal was incised, and from internal and external carotid fork of common carotid artery to upstream of internal carotid, nylon surgical thread (length 16 mm, diameter 0.2 to 0.3 mm, with silicon coating on its tip 3 mm) was passed and left, middle cerebral artery was obstructed for 2 hours. After that, the thread was removed to release the middle cerebral artery, and blood was reperfused for 21 hours. To each animals, 3.0 mg/kg of edaravone (control) and 5.58 mg/kg of TM-2002 were respectively administered twice by cannula which is left in caudal artery 5 minutes and 5 hours after middle cerebral artery occlusion. After said operation, the brain was removed from said animal, and after preparing 7 brain slices with 2 mm thickness, to TTC stain (0.8 g of 2,3,5-triphenyltetrazolium chloride (Sigma) dissolved in 40 ml of saline) were soaked at 37° C. for 15 minutes to stain, the area of infarction and fixed by 10% neutral formalin liquid to prepare specimen. Such specimens were created the image by CCD camera respectively, and analysed according to method of Swanson et al. (J Cereb Blood Flow Metab 10:290-293; 1994). […] Furthermore, function recovering was estimated before and after the operation by rotor rod test that estimates how much they can walk on rotating rotor.

pentosidine [2] = experiment: Pentosidine formation inhibiting effect in plasma of hemodialysis patients; type: biochemical, human; details: plasma from hemodialysis patients, final concentration 0.8, 2.0, 5.0 mM, 37° C. for one week; compared to pyridoxamine as positive control
Experimental: Fresh heparinized plasma samples were obtained after informed consent from hemodialysis patients prior to the dialysis session, and filtrated and sterilized. To the plasma (450 μL), there was added the solution of TM-2002 in dimethylsurphoxide (50 μL) (final concentration: 0.8, 2.0, 5.0 mM) incubated at 37° C. for one week. Then, the amount of pentosidine was measured.
Measurement of the amount of pentosidine was made as follows: to each incubated sample (50 μL) was added an equal volume of 10% trichloroacetic acid, followed by centrifugation at 5000 g for 5 minutes; after removal of the supernatant, the pellet was washed by 5% trichloroacetic acid (300 μL); the pellet was dried under reduced pressure and then subjected to hydrolysis in 6N HCl solution (100 μL) at 110° C. under nitrogen atmosphere for 16 hours; to the hydrolysate, 5N NaOH (100 μL) and 0.5 M phosphate buffer (pH 7.4) (200 μL) were added, followed by filtration through a porefilter with a pore size of 0.5 μm and dilution with PBS. The concentration of free pentosidine was determined by reversed-phase HPLC using a fluorescence detector (Miyata, T. et al.: Proc. Natl. Acad. Sci. USA, Vol. 93, p. 2353-2358, 1996). The effluent was monitored at 335/385 nm of excitation/emission wavelength. Synthetic pentosidine was used as the standard. The detection limit of pentosidine was 0.1 pmol/mg protein. […]

pentosidine [3] = experiment: Pentosidine production inhibiting effect with BSA and arabinose; type: biochemical; details: BSA and arabinose instead of plasma
Method in brief: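 Heparinized hemodialysis-patient plasma (replaced here by BSA plus arabinose) incubated with compound at 0.8, 2.0, 5.0 mM final, 37 °C, one week. Protein TCA-precipitated, hydrolysed in 6N HCl at 110 °C for 16 h; free pentosidine quantified by reversed-phase HPLC with fluorescence (ex/em 335/385 nm) against synthetic standard.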

GRP78 = experiment: ER stress inducing molecule expression in RIN-5F cells, western blot, GRP78; type: cell-based, rat; details: TM-2002 200 μM, 50 μM and tunicamycin co-added
Experimental: Rat pancreatic β cell line (RIN-5F) was seeded in 6 well culture plate to 1.0×10^5 cells/well, and after 24 hours, TM-2002 in DMSO (200 mM, 50 mM) were added to be final concentration 200 μM, 50 μM. After another 1 hour, 0.2 μl of tunicamycin (Sigma) in methanol(1 mg/ml) was added. After culturing 8 hours, the cells were washed 2 ml of PBS(+) twice, and the cells were dissolved in 100 μl of lysate (50 mM Tris-HCl (pH 7.5), 150 mM NaCl, 100 mM NaF, 100 mM sodium phosphate (pH 7.4), 2 mM Na3VO4, 0.1% protease inhibitor cocktail (Sigma), 1% Triton X-100). To remove the insoluble fraction of this lysate, centrifuged at 12,000×g for 10 minutes and obtained the supernatant to give cell extract. The extract was quantified its protein concentration using DC protein assay kit (Bio Rad), and each samples (1 μg) was electrophoresed by SDS-PAGE and transferred to PVDF membrane. The membrane was blocked with 5% skimmed milk/0.1% Tween20-TBS for 1 hour at room temperature, and reacted with anti-ORP150 antibody in 5% skimmed milk/0.1% Tween20-TBS (2000 folds: specific antibody), anti-GRP78 antibody (Santa Cruz) in 5% skimmed milk/0.1% Tween20-TBS (100 folds) and anti-actin antibody (Sigma) in 5% skimmed milk/0.1% Tween20-TBS (200 folds) for 2 hours. […] The detected signal was analyzed by Lane analyzer (ATTO) and calculated the signal strength. […]

Cc1ncc2c(c1O)C(c1c(C)nn(-c3ccccc3)c1O)OC2 (centres unmarked) [compound 68, 1-(5-hydroxy-3-methyl-1-phenyl-1H-pyrazol-4-yl)-6-methyl-1,3-dihydro-furo[3,4-c]pyridin-7-ol]
cerebral infarction nest ([1]; 2 hours occlusion, 21 hours reperfusion, edaravone 3.0 mg/kg, TM-2002 5.58 mg/kg, twice (5 minutes and 5 hours after occlusion), vs excipient): significantly reduced | improvement for nervous condition and recovering the function ([1]; compared to excipient single administration): remarkably shown | pentosidine formation inhibiting effect (pentosidine [2]): inhibits significantly pentosidine formation compared to pyridoxamine | Pentosidine production rate in 5 mM of medicament (%) (pentosidine [3]): 2.82% | hyperexpression of GRP78 (GRP78): suppressed
